Experimental findings from US20240174637A1, “DEGRADERS OF GRK2 AND USES THEREOF” (Sonata Therapeutics, Inc., priority 2021, published 2024) are described below.

Experiment [1] concerns the target T1, GRK2 (Homo sapiens, UniProt P25098).
T1 sequence (P25098 1-689): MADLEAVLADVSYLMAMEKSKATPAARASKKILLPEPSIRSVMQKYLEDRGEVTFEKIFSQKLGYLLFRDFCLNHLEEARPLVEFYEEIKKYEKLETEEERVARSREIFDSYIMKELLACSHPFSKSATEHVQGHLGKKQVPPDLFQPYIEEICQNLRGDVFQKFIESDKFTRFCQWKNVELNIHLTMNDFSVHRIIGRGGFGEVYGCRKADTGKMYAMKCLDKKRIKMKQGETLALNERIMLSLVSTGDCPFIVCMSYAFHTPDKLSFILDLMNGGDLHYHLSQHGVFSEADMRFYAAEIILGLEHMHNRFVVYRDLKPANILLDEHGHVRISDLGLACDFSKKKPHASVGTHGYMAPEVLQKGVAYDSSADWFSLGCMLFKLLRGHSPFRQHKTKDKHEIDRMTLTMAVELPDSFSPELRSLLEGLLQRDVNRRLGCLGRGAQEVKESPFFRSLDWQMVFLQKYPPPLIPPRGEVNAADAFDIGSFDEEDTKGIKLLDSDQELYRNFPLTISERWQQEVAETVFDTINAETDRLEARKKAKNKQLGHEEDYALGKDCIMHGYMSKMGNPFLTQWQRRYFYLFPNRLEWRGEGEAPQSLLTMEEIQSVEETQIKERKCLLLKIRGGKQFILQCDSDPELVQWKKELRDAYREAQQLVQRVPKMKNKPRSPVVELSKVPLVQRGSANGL
Kind of experiment: Second ADPGlo GRK2 Inhibition Assay (Example 3). It is filed as biochemical. To be noted: ADP-Glo, 20 μM ATP; read-out: Second ADPGlo Enzymatic GRK2 Assay: IC50 (nM) (Example 3). As to the method: Assay: GRK2 (2 nM) was incubated with ATP (20 μM) and GRKtide (1.2 mg/mL) in 11 μL of assay buffer (see above) for 180 min at room temperature. Compounds were dissolved in 100% DMSO, serially diluted 3.16-fold from 100 μM with 10 concentration points and transferred as 100× into assay plate (final compounds concentration in the reaction plate from 1 μM).
Materials: GRK2 was purchased from SignalChem (Cat #A14-10G, Lot #X645-3). Substrate GRKtide was from SignalChem (Cat #G46-58, Lot #R339-6). ADP-Glo Kinase Assay from Promega (Cat #V9102). Assay buffer consisted of 20 mM HEPES (pH7.5), 20 mM MgCl2, 0.01% Tween-20, 0.05 mM DDT. 384-well white plates were from Corning (Cat #4513).
HTS protocol: Add 5.5 μL of 2× substrate-enzyme mix into all columns except of 1-2 and 24 of reaction plate. Spin 15 seconds at 200 g. Transfer 1 ul of compounds from the plate with serial dilutions (384 well plate with 22 uL of compound in columns 3-22/DMSO solution 1-2,23-24) to Dilution plate (384 well plate with 49 uL of buffer with 2×40 μM ATP). After mixing transfer 5.5 ul from Dilution plate to Reaction plate (to 5.5 μL of 2× substrate-enzyme mix). Spin 15 seconds at 200 g and incubate for 180 min at room temperature with sealing. Add 3 μL ADP-Glo reagent to all the wells. Spin 15 seconds at 200 g and incubate for 40 min at room temperature. Add 6 μL Detection solution to all the wells. Incubate for 30 min at room temperature. Read plate using ClarioStar Plus (BMG).
Data Analysis: Data were analyzed in GraphPad Prism 5.0.2. Each HTS plate contains compounds in columns 3-22, controls (enzyme, no compound) in column 23, and blanks (no enzyme) in columns 2. HTS percent inhibition was calculated for each compound from the signal in luminescence units and the mean of the plate controls and the mean of the plate blanks using the following equation: % Inhibition=100*(1-(signal-blank mean)/(control mean-blank mean)).
(ADP-Glo first removes unused ATP, then detects ADP through luciferase.)

The target in experiment [2] is T1, GRK2. Kind of experiment: GRK2 Degradation Assay and Western Blot in PAXF1657 cells. It is filed as cell-based. Details: endogenous in cells; host or cells: PAXF1657. To be noted: PAXF1657 EV, 24 hrs; for inhibition at 1 µM: read-out: % GRK2 degradation at 1 uM in PAXF1657 EV (24 hrs). The method in brief: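 GRK2 degradation judged by immunoblot: NP40 lysates separated by SDS-PAGE and probed for GRK2 and β-actin, with HRP/ECL detection. Lysates came from PAXF1657 cells exposed to 0–10 μM compound for 6–24 h after reaching 70% confluency.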
For orientation: In western blotting, separated proteins are transferred to a membrane and probed.

In general, IC50 refers to the concentration at which inhibition is half-maximal.

Some results are limits rather than exact numbers.

On to `Cc1ncsc1-c1ccc(CNC(=O)[C@@H]2C[C@@H](O)CN2C(=O)[C@@H](NC(=O)COCCOCCOCCOCCOCCOCCCCCCOc2cccc(CNC(=O)c3cccc(NCc4nnc(-c5ccncn5)n4C)c3)c2)C(C)(C)C)cc1` [Compound D100], for which the IC50 at GRK2 [1] is less than 100 nM. For the same molecule, at GRK2 [2], the inhibition at 1 µM was found to be 22% and the “% GRK2 degradation at 10 uM in PAXF1657 EV (24 hrs)” value is recorded as 39%.

Take `Cc1ncsc1-c1ccc(CNC(=O)[C@@H]2C[C@@H](O)CN2C(=O)[C@@H](NC(=O)COCCOCCCCCCOc2cccc(CNC(=O)c3cccc(NCc4nnc(-c5ccncn5)n4C)c3)c2)C(C)(C)C)cc1` [Compound D101]: the IC50 at GRK2 [1] was less than 100 nM. At GRK2 [2], the inhibition at 1 µM was 18% and the “% GRK2 degradation at 10 uM in PAXF1657 EV (24 hrs)” value worked out at 10%.
